biological target: T1, human A2a receptor (Homo sapiens, UniProt P29274); assay: A2a receptor competition binding assay (Scintillation Proximity); settings: A2a Ki, membranes from HEK293 cells expressing human A2a receptor; 0.5 nM tritiated ligand; Cheng-Prusoff
T1 construct: purchased Perkin-Elmer RBHA2AM400UA; host or cells: HEK293 cells, used as a membrane preparation
How it was run: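 HEK293 membranes bearing the human receptor, pretreated with adenosine deaminase, competed against 0.5 nM tritiated pyrazolotriazolopyrimidine antagonist with compound at 3000–0.15 nM final in DPBS plus 10 mM MgCl2. SPA bead readout after 1 h at room temperature; Ki from EC50 via Cheng-Prusoff.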

T1 sequence (P29274 whole entry): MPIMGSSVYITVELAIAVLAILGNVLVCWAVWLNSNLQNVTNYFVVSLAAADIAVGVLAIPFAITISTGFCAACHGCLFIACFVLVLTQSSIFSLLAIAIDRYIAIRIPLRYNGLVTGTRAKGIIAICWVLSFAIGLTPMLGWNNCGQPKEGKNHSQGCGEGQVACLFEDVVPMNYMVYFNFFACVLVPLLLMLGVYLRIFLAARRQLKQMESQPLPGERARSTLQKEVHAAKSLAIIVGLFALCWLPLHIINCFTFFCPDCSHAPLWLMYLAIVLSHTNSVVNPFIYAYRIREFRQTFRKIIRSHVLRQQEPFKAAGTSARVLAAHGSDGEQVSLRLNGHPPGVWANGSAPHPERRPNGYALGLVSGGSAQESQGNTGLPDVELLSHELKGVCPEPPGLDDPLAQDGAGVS

SMILES | Ki
COc1cccc2c1nc(N)n1cc(C(=O)N3C4CCC3CC4)nc21 [Ex-218, (5-amino-7-methoxyimidazo[1,2-c]quinazolin-2-yl)((1s,4s)-7-azabicyclo[2.2.1]heptan-7-yl)methanone] | 6.1 nM

same assay, conditions: membranes from HEK293 cells expressing human A2a receptor; 0.5 nM tritiated ligand; Cheng-Prusoff; read-out: A2a Ki

Ki | SMILES
5.2 nM | COc1cccc2c1nc(N)n1cc(Cc3cccnc3N3CCOCC3)nc21 [Ex-43, 7-methoxy-2-((2-morpholinopyridin-3-yl)methyl)imidazo[1,2-c]quinazolin-5-amine]
21 nM | CCN(CC)C(=O)C1CCCN(C(=O)c2cn3c(N)nc4c(OC)cccc4c3n2)C1 (stereo not shown) [Ex-194, 1-(5-amino-7-methoxyimidazo[1,2-c]quinazoline-2-carbonyl)-N,N-diethylpiperidine-3-carboxamide]
170 nM | COc1cccc2c1nc(N)n1cc(C(=O)N3CCC(=O)C3)nc21 [Ex-238, 1-(5-amino-7-methoxyimidazo[1,2-c]quinazoline-2-carbonyl)pyrrolidin-3-one]
0.9 nM | Nc1nc2c(F)cccc2c2nc(Cc3ccccc3)cn12 [Ex-06, 2-benzyl-7-fluoroimidazo[1,2-c]quinazolin-5-amine]
46 nM | Nc1nc2c(F)cccc2c2nc(C(=O)N3CCc4ccc(CC(=O)Nc5ccccn5)cc4C3)cn12 [Ex-290, 2-(2-(5-amino-7-fluoroimidazo[1,2-c]quinazoline-2-carbonyl)-1,2,3,4-tetrahydroisoquinolin-7-yl)-N-(pyridin-2-yl)acetamide]
160 nM | Nc1nc2ccccc2c2nc(-c3cccc(Br)c3)cn12 [Ex-105, 2-(3-bromophenyl)imidazo[1,2-c]quinazolin-5-amine]
5.1 nM | N#Cc1cccc(CC(=O)N2CCc3c(Cc4cn5c(N)nc6c(F)cccc6c5n4)cccc3C2)c1 [Ex-55, 3-(2-(5-((5-amino-7-fluoroimidazo[1,2-c]quinazolin-2-yl)methyl)-3,4-dihydroisoquinolin-2(1H)-yl)-2-oxoethyl)benzonitrile]
12 nM | Nc1nc2c(F)cccc2c2nc(C(=O)NCc3ccccc3N3CCN(CCCO)CC3)cn12 [Ex-271, 5-amino-7-fluoro-N-(2-(4-(3-hydroxypropyl)-piperazin-1-yl)benzyl)-imidazo[1,2-c]-quinazoline-2-carboxamide]
4 nM | COc1cccc2c1nc(N)n1cc(CNCc3ccccc3)nc21 [Ex-143, 2-((benzylamino)-methyl)-7-methoxy-imidazo[1,2-c]-quinazolin-5-amine]
30.6 nM | COc1cccc2c1nc(N)n1cc(C(=O)N3CCCC(OC)C3)nc21 (stereo not shown) [Ex-240, (5-amino-7-methoxyimidazo[1,2-c]quinazolin-2-yl)(3-methoxypiperidin-1-yl)methanone]
56 nM | COc1cccc(CN2CCC(Cc3cn4c(N)nc5c(F)cccc5c4n3)CC2)c1 [Ex-310, 7-fluoro-2-((1-(3-methoxybenzyl)-piperidin-4-yl)-methyl)imidazo-[1,2-c]quinazolin-5-amine]
120 nM | Nc1nc2c(F)cccc2c2nc(C(=O)N3CCc4cccc(CN5CCN(c6ccc(F)cc6F)CC5)c4C3)cn12 [Ex-247]
14 nM | COc1cccc2c1nc(N)n1cc(C(=O)N3CCC[C@H]3C(F)(F)F)nc21 [Ex-211, (S)-(5-amino-7-methoxyimidazo[1,2-c]quinazolin-2-yl)(2-(trifluoromethyl)pyrrolidin-1-yl)methanone]
18 nM | Nc1nc2c(F)cccc2c2nc(Cc3cc(F)ccc3O)cn12 [Ex-37, 2-((5-amino-7-fluoroimidazo[1,2-c]quinazolin-2-yl)methyl)-4-fluorophenol]
26 nM | Nc1nc2c(F)cccc2c2nc(CC3CCN(C(=O)c4cccc(Br)n4)CC3)cn12 [Ex-322, (4-((5-amino-7-fluoroimidazo[1,2-c]quinazolin-2-yl)-methyl)piperidin-1-yl)(6-bromopyridin-2-yl)methanone]
54 nM | COc1cccc(OCc2cn3c(N)nc4c(F)cccc4c3n2)c1 [Ex-147]
2.6 nM | COc1ccc2c(c1)nc(N)n1cc(Cc3ccccc3)nc21 [Ex-03, 2-benzyl-8-methoxyimidazo[1,2-c]quinazolin-5-amine]
920 nM | Nc1nc2cc(N3CCOCC3)c(F)cc2c2nc(Cc3ccccc3)cn12 [Ex-13, 2-benzyl-9-fluoro-8-morpholinoimidazo[1,2-c]quinazolin-5-amine]
4.6 nM | COc1cccc2c1nc(N)n1cc(Cc3ccc(N4CCN(C(C)=O)CC4)nc3)nc21 [Ex-45, 1-(4-(5-((5-amino-7-methoxyimidazo[1,2-c]quinazolin-2-yl)methyl)pyridin-2-yl)piperazin-1-yl)ethan-1-one]
6.8 nM | Nc1nc2c(F)cccc2c2nc(Cn3cc(-c4ccc(OC(F)(F)F)cc4)nn3)cn12 [Ex-95, 7-fluoro-2-((4-(4-(trifluoromethoxy)-phenyl)-1H-1,2,3-triazol-1-yl)methyl)-imidazo[1,2-c]-quinazolin-5-amine]
2 nM | COc1cccc2c1nc(N)n1cc(Cc3cccc4c3CCN(C(=O)CCC(F)(F)F)C4)nc21 [Ex-60, 1-(5-((5-amino-7-methoxyimidazo[1,2-c]quinazolin-2-yl)methyl)-3,4-dihydroisoquinolin-2(1H)-yl)-4,4,4-trifluorobutan-1-one]

From patent publication US11498923B2 (Merck Sharp & Dohme Corp., priority 2017, dated 2022)
